From patent US20220306630A1, “AGONISTS OF ROR GAMMAt” (BRISTOL-MYERS SQUIBB COMPANY, priority 2019, published 2022)

molecular target: T1, RORgT (Homo sapiens, UniProt P51449); assay: RORgT Gal4 Luciferase Reporter Gene Assay; format: cell-based; details: engineered Jurkat cells overexpressing RORgT (LBD or full length) with Gal4 Luc reporter; 18 hours at 37° C.; 40 μM to 0.67 nM; read-out: RORg_GAL4 EC50
T1 construct: Gal4 (fusion partner); expressed in transfected cells; host or cells: engineered Jurkat cells (Jurkat pEx/Gal/hRORγ CLBD/HYG pG5luc/blast)
T1 sequence (P51449 267-516): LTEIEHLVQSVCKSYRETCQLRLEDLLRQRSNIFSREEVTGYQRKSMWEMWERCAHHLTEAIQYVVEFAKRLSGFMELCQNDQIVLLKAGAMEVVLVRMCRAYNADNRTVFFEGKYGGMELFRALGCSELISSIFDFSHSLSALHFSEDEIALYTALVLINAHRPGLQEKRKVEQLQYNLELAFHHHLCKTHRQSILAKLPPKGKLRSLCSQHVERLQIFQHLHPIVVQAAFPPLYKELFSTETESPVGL
How it was run: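 Cells exposed to compound 18 hours at 37° C, then lysed for luciferase luminescence. Inhibition of constitutive activity expressed as percent reduction of signal window relative to a control compound.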

`COCCNC(=O)c1ccc(Cl)c(Oc2ccc(OC)c(C(C)C)c2)c1Cl` [Example 183] and `COc1ccc(Oc2c(Cl)ccc(C(=O)NCCn3ccnc3)c2Cl)cc1C(C)C` [Example 19, N-(2-(1H-imidazol-1-yl)ethyl)-2,4-dichloro-3-(3-isomethoxyphenoxy)benzamide] are within 1.5-fold of each other in EC50: 284 nM for the first, 396 nM for the second.

Compared with `CC(C)c1cc(F)cc(Oc2c(Cl)cc(NC(=O)CC3CCN(S(C)(=O)=O)CC3)cc2Cl)c1` [Example 258], `COc1ccc(Oc2c(Cl)cc(NC(=O)C[C@H]3CCCN(S(=O)(=O)C4CC4)C3)cc2Cl)cc1C(C)C` [Example 318] is 4-fold higher in EC50: 19 nM for the first, 76 nM for the second. The first is the more potent here.

First: COc1ccc(Oc2c(Cl)ccc(CNC(=O)CN3CCNCC3)c2Cl)cc1C(C)C [Example 89]
Second: CCS(=O)(=O)N1CCC(OCC(=O)NCc2ccc(Cl)c(Oc3ccc(OC)c(C(C)C)c3)c2Cl)CC1 [Example 223]
The EC50 of the first is 3.7-fold higher: 4080 nM for the first, 1110 nM for the second. The second is the more potent here.

First: COc1ccc(Oc2c(Cl)ccc(CNC(=O)Cc3cccc(S(C)(=O)=O)c3)c2Cl)cc1C(C)C [Example 87]
Second: COc1ncc(Oc2c(Cl)ccc(C(=O)NC(C)c3ccc(S(C)(=O)=O)cc3)c2Cl)cc1C(C)C (centres unmarked) [Example 137]
The EC50 of the first is 39-fold higher: 541 nM for the first, 14 nM for the second. The second is the more potent here.

Going from `COc1ccc(Oc2c(Cl)cc(NC(=O)Cc3cccnc3)cc2Cl)cc1C1CC1` [Example 37, N-(3,5-dichloro-4-(3-cyclopropyl-4-methoxyphenoxy)phenyl)-2-(pyridin-3-yl)acetamide] to `COc1ccc(Oc2c(Cl)cc(N3CC(CNC(C)=O)OC3=O)cc2Cl)cc1C(C)C` (centres unmarked) [Example 11, N-((3-(3,5-dichloro-4-(3-isopropyl-4-methoxyphenoxy)phenyl)-2-oxooxazolidin-5-yl)methyl)acetamide], the EC50 falls from 1120 nM to 77 nM (15-fold).

Compound `COc1ccc(Oc2c(Cl)ccc(C(=O)N(C)CC3CCN(S(C)(=O)=O)CC3)c2Cl)cc1C(C)C` [Example 104] has an EC50 of 15 nM.
